This is an account of results in ChEMBL document CHEMBL3853358, “Concise SAR Exploration Based on the "Head-to-Tail" Approach: Discovery of PI4KIIIα Inhibitors Bearing Diverse Scaffolds” (ACS Med Chem Lett, 2016).

Data set [1] is described as follows: Inhibition of human Flag-tagged PI4K3beta expressed in insect cells preincubated with enzyme followed by PS:PI substrate and ATP addition measured after 60 mins by HTRF Transcreener ADP assay.
For the next data set, the species on record is Homo sapiens. The data set can be described thus: Selectivity ratio of IC50 for human Flag-tagged PI4K3beta expressed in insect cells to IC50 for human Flag-tagged PI4K3alpha expressed in insect cells.
Data set [2] can be described thus: Inhibition of human Flag-tagged PI4K3alpha expressed in insect cells preincubated with enzyme followed by PS:PI substrate and ATP addition measured after 60 mins by HTRF Transcreener ADP assay. For orientation: In TR-FRET formats the signal depends on donor and acceptor labels being close together.
In data set [3] the test system is Hepatitis C virus. The data set can be described thus: Antiviral activity against HCV genotype 1b Con1 infected in human Huh5-2 cells co-expressing subgenomic HCV replicon NS3 assessed as reduction in viral replication after 2 days by luciferase reporter gene assay. In kind it is functional, cell-based, Hepacivirus hominis. The conditions noted are these: genotype 1b Con1, Huh-5-2, 48 h. A general note: Replicon systems follow genome replication, usually without infectious particles.

Data set [4] in a line: Inhibition of human Flag-tagged PI4K3alpha expressed in insect cells preincubated with enzyme followed by PS:PI substrate and ATP addition measured after 60 mins by ADP-Glo kinase assay. Background: In ADP-Glo the light output rises with the ADP produced.
The nature of data set [5]: Inhibition of human Flag-tagged PI4K3beta expressed in insect cells preincubated with enzyme followed by PS:PI substrate and ATP addition measured after 60 mins by ADP-Glo kinase assay.
Data set [6] can be described thus: Total clearance in CD(Sprague-Dawley) rat at 0.3 mg/kg, iv administered as single dose measured up to 25 hrs. In kind it is ADME, organism-based. Particulars: in vivo.
Data set [7] in a line: Oral bioavailability in CD(Sprague-Dawley) rat at 1 mg/kg administered as single dose measured up to 25 hrs. Type of data set: ADME, organism-based. Particulars: in vivo.
Data set [8] deals with Phosphatidylinositol 4,5-bisphosphate 3-kinase catalytic subunit alpha isoform (Homo sapiens, UniProt P42336). The data set can be described thus: Inhibition of PI3Kalpha (unknown origin) preincubated prior addition of PIP2 as substrate and ATP measured after 30 mins by HTRF assay.
Data set [9] in a line: MRT in CD(Sprague-Dawley) rat at 1 mg/kg, po administered as single dose. Type of data set: ADME, organism-based. Particulars: in vivo.
Data set [10] can be described thus: Metabolic stability in human liver microsomes assessed as compound remaining at 5 uM measured up to 60 mins. Type of data set: ADME. The conditions noted are these: read-out: Stability.
A short description of data set [11]: Volume of distribution at steady state in CD(Sprague-Dawley) rat at 0.3 mg/kg, iv administered as single dose measured up to 25 hrs. In kind it is ADME, organism-based. Particulars: in vivo, read-out: Vdss.
A short description of data set [12]: Terminal half life in CD(Sprague-Dawley) rat at 0.3 mg/kg, iv administered as single dose. Type of data set: ADME, organism-based. The conditions noted are these: in vivo, read-out: beta t1/2 (converted).
Data set [13] is described as follows: AUC (0 to infinity) in CD(Sprague-Dawley) rat at 1 mg/kg, po administered as single dose measured up to 25 hrs. In kind it is ADME, organism-based. Also noted: dose 1 mg/kg, route oral, time infinity. Particulars: in vivo.
Data set [14] has as its target Phosphatidylinositol 4,5-bisphosphate 3-kinase catalytic subunit beta isoform (Homo sapiens, UniProt P42338). The data set can be described thus: Inhibition of PI3Kbeta (unknown origin) preincubated prior addition of PIP2 as substrate and ATP measured after 30 mins by HTRF assay.
The test system of data set [15] is Hepatitis C virus. The experiment in a line: Antiviral activity against HCV genotype […] Con1 infected in human Huh5-2 cells co-expressing subgenomic HCV replicon NS3 assessed as reduction in viral replication after 2 days by luciferase reporter gene assay. In kind it is functional, cell-based, Hepacivirus hominis, genotype 1b Con1. Particulars: Huh-5-2, 48 h.

A short description of data set [16]: Metabolic stability in rat liver microsomes assessed as compound remaining at 5 uM measured up to 60 mins. In kind it is ADME. The conditions noted are these: read-out: Stability.

For orientation: IC50 means the midpoint of a concentration-inhibition curve. The low end stands for inhibition by little substance, the high end for a need for much substance. By EC50 is commonly meant the concentration giving half of the maximal effect. For orientation: clearance means a measure of how efficiently the substance is removed, as volume per time. The low end stands for a low capacity for elimination, the high end for a high capacity for elimination. As a reminder, the bioavailability is the share of a dose that reaches the circulation, judged against a reference dose that is usually intravenous. For orientation: MRT means a mean duration of stay, worked out from the concentration-time curve. One may read the AUC(0-inf) as the area under the concentration-time curve extrapolated to infinity. The low end stands for less exposure, the high end for more exposure.

Chain of Phosphatidylinositol 4,5-bisphosphate 3-kinase catalytic subunit beta isoform (P42338 whole entry, canonical isoform): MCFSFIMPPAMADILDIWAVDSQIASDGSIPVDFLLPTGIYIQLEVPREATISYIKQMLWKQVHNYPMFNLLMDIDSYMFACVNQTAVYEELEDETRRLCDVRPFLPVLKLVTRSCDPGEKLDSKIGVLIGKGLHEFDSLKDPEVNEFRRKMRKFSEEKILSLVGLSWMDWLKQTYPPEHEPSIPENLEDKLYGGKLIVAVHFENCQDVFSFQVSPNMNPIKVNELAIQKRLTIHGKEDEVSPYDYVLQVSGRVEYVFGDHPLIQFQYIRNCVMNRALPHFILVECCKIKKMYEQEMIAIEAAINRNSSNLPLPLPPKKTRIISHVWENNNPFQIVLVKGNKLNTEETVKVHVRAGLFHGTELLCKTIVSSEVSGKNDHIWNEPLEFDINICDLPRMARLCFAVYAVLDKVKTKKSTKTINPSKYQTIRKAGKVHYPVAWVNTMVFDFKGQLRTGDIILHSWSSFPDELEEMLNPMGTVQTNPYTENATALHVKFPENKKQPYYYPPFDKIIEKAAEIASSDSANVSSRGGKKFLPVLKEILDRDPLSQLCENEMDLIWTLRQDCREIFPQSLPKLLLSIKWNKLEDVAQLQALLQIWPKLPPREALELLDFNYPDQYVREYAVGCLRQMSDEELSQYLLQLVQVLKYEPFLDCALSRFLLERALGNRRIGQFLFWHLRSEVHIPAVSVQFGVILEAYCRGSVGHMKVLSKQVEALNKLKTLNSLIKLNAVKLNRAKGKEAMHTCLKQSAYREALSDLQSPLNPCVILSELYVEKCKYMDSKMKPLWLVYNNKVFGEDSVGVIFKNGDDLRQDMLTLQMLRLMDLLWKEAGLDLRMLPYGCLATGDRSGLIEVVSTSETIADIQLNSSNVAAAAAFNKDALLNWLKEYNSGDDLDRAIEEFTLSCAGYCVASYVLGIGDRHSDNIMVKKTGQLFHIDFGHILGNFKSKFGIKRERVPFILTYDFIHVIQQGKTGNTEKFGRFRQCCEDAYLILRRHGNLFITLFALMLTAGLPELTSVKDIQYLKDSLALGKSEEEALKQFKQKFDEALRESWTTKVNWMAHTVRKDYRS
Chain of Phosphatidylinositol 4,5-bisphosphate 3-kinase catalytic subunit alpha isoform (P42336 whole entry, canonical isoform): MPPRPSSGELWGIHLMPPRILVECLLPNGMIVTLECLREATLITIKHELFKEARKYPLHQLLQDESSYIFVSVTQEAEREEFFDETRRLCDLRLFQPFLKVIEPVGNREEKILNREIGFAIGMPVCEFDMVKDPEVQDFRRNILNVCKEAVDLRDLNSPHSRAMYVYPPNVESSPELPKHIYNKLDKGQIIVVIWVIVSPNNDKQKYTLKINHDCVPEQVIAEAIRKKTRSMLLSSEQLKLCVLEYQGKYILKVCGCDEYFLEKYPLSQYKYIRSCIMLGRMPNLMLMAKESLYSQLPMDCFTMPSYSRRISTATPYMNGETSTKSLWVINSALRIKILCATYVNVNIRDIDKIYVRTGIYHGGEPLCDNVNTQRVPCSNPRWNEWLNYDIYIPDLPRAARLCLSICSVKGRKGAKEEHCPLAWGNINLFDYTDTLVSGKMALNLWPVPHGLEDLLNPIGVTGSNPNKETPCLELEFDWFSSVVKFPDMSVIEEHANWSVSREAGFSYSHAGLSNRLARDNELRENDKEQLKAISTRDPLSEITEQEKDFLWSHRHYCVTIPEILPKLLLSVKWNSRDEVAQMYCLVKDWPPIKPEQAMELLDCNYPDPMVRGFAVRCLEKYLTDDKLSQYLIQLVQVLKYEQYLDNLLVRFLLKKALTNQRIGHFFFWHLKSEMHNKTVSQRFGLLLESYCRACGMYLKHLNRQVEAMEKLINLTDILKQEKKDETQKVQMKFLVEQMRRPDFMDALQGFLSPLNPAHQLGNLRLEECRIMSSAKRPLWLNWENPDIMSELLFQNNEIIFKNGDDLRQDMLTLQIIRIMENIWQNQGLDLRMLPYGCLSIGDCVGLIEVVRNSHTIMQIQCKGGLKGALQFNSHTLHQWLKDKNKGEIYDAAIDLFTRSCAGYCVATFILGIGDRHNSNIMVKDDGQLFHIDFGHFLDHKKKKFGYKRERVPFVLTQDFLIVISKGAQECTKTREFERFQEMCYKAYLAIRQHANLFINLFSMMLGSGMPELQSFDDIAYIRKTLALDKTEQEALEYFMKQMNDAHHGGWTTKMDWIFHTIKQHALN

For `COCc1ncc(-c2ccn3nnc(-c4ccccc4)c3c2)cc1NS(=O)(=O)c1ccc(F)cc1F`, the figures for the IC50 in data set [1] and in data set [2] were over 10000 nM and 93 nM, respectively. Moreover, the Ratio IC50 in the data set listed under Homo sapiens was over 110. The concentration for a half-maximal effect (EC50) with Hepatitis C virus [3] was 780 nM.
Take `CCCn1cnc2ccc(-c3cnc(COC)c(NS(=O)(=O)c4ccc(F)cc4F)c3)cc2c1=O`: the IC50 came out at 230 nM in [1] and 1.9 nM in data set [2]. In the data set filed under Homo sapiens, the Ratio IC50 is 120. Besides, the EC50 in the data set with Hepatitis C virus [3] came out at 10 nM.
Consider `COc1ncc(-c2ccc3ncn(-c4ccccc4)c(=O)c3c2)cc1NS(=O)(=O)c1ccc(F)cc1F`, for which the Ratio IC50 in the data set filed under Homo sapiens came to 56. Also, the half-inhibitory concentration (IC50) in [4] worked out at 14 nM; in data set [5], 0.78 µM.
As for `COCc1ncc(-c2ccc3nn(C)c(C4CCOCC4)c3c2)cc1NS(=O)(=O)c1ccc(F)cc1F`, the IC50 in data set [1] turned out to be 39 nM; in data set [2] it was 2 nM. Further, the Ratio IC50 in the data set listed under Homo sapiens amounted to 20. Moreover, the EC50 with Hepatitis C virus [3] worked out at 29 nM.
Turning to `COCc1ncc(-c2ccc3nn(C)c(C4=CCOCC4)c3c2)cc1NS(=O)(=O)c1ccc(F)cc1F`, the IC50 is 98 nM in [1] and 3.1 nM in data set [2]. The Ratio IC50 in the data set listed under Homo sapiens is 32. For the same compound, the EC50 with Hepatitis C virus [3] amounted to 50 nM.
Turning to `COCc1ncc(-c2ccc3ncn(-c4ccccc4)c(=O)c3c2)cc1NS(=O)(=O)c1ccc(F)cc1F`, the Ratio IC50 in the data set filed under Homo sapiens is 1200. Moreover, the figures for the IC50 in [4] and in data set [5] were 4.1 nM and 4.9 µM, respectively. In the data set with Hepatitis C virus [3], the EC50 is 20 nM.
As for `COCCn1cnc2ccc(-c3cnc(COC4CC4)c(NS(=O)(=O)c4ccc(F)cc4F)c3)cc2c1=O`, the IC50 in [1] amounted to 220 nM; in data set [2] it was 0.31 nM; in data set [8] it was 240 nM; in [14], 1400 nM. This compound gave a clearance in data set [6] of 0.667 mL/min/kg. The Ratio IC50 in the data set filed under Homo sapiens worked out at 710. The bioavailability in data set [7] stood at 91%. Besides, the MRT in [9] was 5.5 h. In addition, the results for the remaining at 1 h, 5 µM in data set [10] and in data set [16] were 104% and 91%, respectively. Besides, the Vd in data set [11] came out at 0.2 L/kg. In addition, in [12], the half-life was 198 min. This compound displayed a total exposure AUC(0-inf) in [13] of 42 µM·h. Also, the EC50 in the data set on Hepatitis C virus [15] amounted to 10 nM; in the data set with Hepatitis C virus [3] it was 6.8 nM.
For the compound `COCc1ncc(-c2c3ccc(-c4ccccc4)cc3nn2C)cc1NS(=O)(=O)c1ccc(F)cc1F`, the IC50 came to 18000 nM in data set [1] and 260 nM in data set [2]. Also, the Ratio IC50 in the data set filed under Homo sapiens turned out to be 96. The EC50 with Hepatitis C virus [3] was 700 nM.
As for `COc1ncc(-c2ccc3ncn(-c4ccccc4)c(=O)c3c2)cc1CS(=O)(=O)c1ccc(F)cc1F`, in the data set filed under Homo sapiens, the Ratio IC50 was over 30. Also, the IC50 in data set [4] is over 1000 nM; in data set [5] it was over 30 µM. The EC50 in the data set with Hepatitis C virus [3] was over 30000 nM.
Turning to `COCc1ncc(-c2ccc3ncn(CCO)c(=O)c3c2)cc1NS(=O)(=O)c1ccc(F)cc1F`, the IC50 in [1] came out at 660 nM; in data set [2], 2.5 nM. Moreover, the Ratio IC50 in the data set listed under Homo sapiens came to 260. Further, the EC50 in the data set on Hepatitis C virus [3] came to 81 nM.
On to `COCc1ncc(-c2ccc3nnn(-c4ccccc4)c3c2)cc1NS(=O)(=O)c1ccc(F)cc1F`, for which the IC50 in data set [1] was 3700 nM; in [2], 50 nM. In the data set listed under Homo sapiens, the Ratio IC50 was determined as 74. The EC50 in the data set on Hepatitis C virus [3] is 1000 nM.
For the compound `COCc1ncc(-c2c3ccc(C4CCOCC4)cc3nn2C)cc1NS(=O)(=O)c1ccc(F)cc1F`, the IC50 amounted to 300 nM in data set [1] and 5.7 nM in [2]. The Ratio IC50 in the data set listed under Homo sapiens was determined as 53. In the data set on Hepatitis C virus [3], the EC50 was 31 nM.
Consider `COc1ncc(-c2ccc3ncn(-c4ccccc4)c(=O)c3c2)cc1S(=O)(=O)Nc1ccc(F)cc1F`, for which the Ratio IC50 in the data set filed under Homo sapiens was over 160. Also, the IC50 in data set [4] was 190 nM; in data set [5] it was over 30 µM. Moreover, the EC50 in the data set with Hepatitis C virus [3] is 99 nM.
Consider `COCc1ncc(-c2ccc3ncc(-c4ccccc4)c(=O)n3c2)cc1NS(=O)(=O)c1ccc(F)cc1F`, for which the IC50 in data set [1] stood at 8200 nM; in data set [2], 8 nM. In addition, the Ratio IC50 in the data set listed under Homo sapiens is 1030. The EC50 in the data set with Hepatitis C virus [3] was found to be 68 nM.
The matching figures for `COCc1ncc(-c2ccc3ncn(-c4ccccc4)c3c2)cc1NS(=O)(=O)c1ccc(F)cc1F`: 410 nM, 13 nM, 32 and 880 nM.
For the compound `COCc1ncc(-c2ccc3nn(C)c(-c4ccccc4)c3c2)cc1NS(=O)(=O)c1ccc(F)cc1F`, the IC50 stood at 200 nM in data set [1] and 9.1 nM in [2]. In the data set filed under Homo sapiens, the Ratio IC50 came out at 22. For the same compound, in the data set with Hepatitis C virus [3], the EC50 was 610 nM.
Regarding `COCc1ncc(-c2ccc3ncn(CCS(C)(=O)=O)c(=O)c3c2)cc1NS(=O)(=O)c1ccc(F)cc1F`, the IC50 was 160 nM in data set [1] and 1.6 nM in data set [2]. Further, in the data set filed under Homo sapiens, the Ratio IC50 was found to be 100. Further, the EC50 in the data set with Hepatitis C virus [3] was 88 nM.
`COC(C)c1ncc(-c2ccc3ncn(-c4ccccc4)c(=O)c3c2)cc1NS(=O)(=O)c1ccc(F)cc1F` (racemic): the Ratio IC50 in the data set listed under Homo sapiens is over 3000. Also, the IC50 in [4] is 100 nM; in data set [5], over 30 µM. In addition, the EC50 in the data set with Hepatitis C virus [3] stood at 400 nM.
`COCc1ncc(-c2ccc3ncc(=O)n(-c4ccccc4)c3c2)cc1NS(=O)(=O)c1ccc(F)cc1F`: the IC50 in data set [1] came to 1400 nM; in data set [2], 2.2 nM. For the same compound, the Ratio IC50 in the data set listed under Homo sapiens amounted to 640. Further, the EC50 in the data set with Hepatitis C virus [3] is 41 nM.
Taken in the same sequence, the figures for `COCCn1cnc2ccc(-c3cnc(COC)c(NS(=O)(=O)c4ccc(F)cc4F)c3)cc2c1=O` were 130 nM, 1 nM, 130 and 13 nM.
Take `COCc1ncc(-c2c3ccc(C4=CCOCC4)cc3nn2C)cc1NS(=O)(=O)c1ccc(F)cc1F`: the IC50 in data set [1] amounted to 920 nM; in data set [2], 16 nM. Further, in the data set filed under Homo sapiens, the Ratio IC50 was 58. Also, the EC50 with Hepatitis C virus [3] was found to be 78 nM.
